Patent US4246282A, “ω-Dialkylalkanoic acid derivatives used to induce antianoxic activity” (Labaz, priority 1979, dated 1981)

Assays:
[1] = rota rod test (neurotoxicity, coordination of movements on a turning rod)
Description: This test enables the animal's ability to coordinate its movements on a turning rod to be evaluated. […] (a) 15 min. after administration of 500 mg/kg by oral route:

[2] = Anoxia in confined space (period of survival); assay type: in vivo, mice
Description: Batches of 15 male mice were treated with a dose of a compound to be studied. After that, each animal was placed in a hermetically sealed box of 200 cm^3. The animal was considered to be dead when it had stopped breathing.
The increase in the period of survival was then noted in % in comparison with the controls. […]

[3] = Pentylenetetrazol seizure; assay type: in vivo, mice; conditions: Mus musculus, 0.25 h
[4] = β-Mercaptopropionic acid seizure (protection against the tonic seizure); assay type: in vivo, mice; conditions: Mus musculus, 0.25 h
Description: β-Mercaptopropionic acid is an inhibitor of glutamate decarboxylase (G.A.D.), an enzyme which catalyses the transformation of glutamate into γ-aminobutyric acid (GABA). As a consequent of this, a decrease in the GABA lever occurs together with generalized tonico-clonic seizures 3 to 4 minutes after administration.
In the present test, β-mercaptopropionic acid was administered intraperitoneally to batches of 10 male mice, at a dose of 70 mg/kg, 30 minutes after oral administration of a dose of the compound to be studied. The percentage of animals protected against the tonic seizure was registered 15 minutes after administration of the β-mercaptopropionicacid.

[5] = 15 min. after administration of 500 mg/kg by oral route
[6] = 30 min. after administration of 100 mg/kg by intraperitoneal route
[7] = 15 min. after administration of 100 mg/kg by intraperitoneal route
[8] = 30 min. after administration of 500 mg/kg by oral route

CCCC(CCC)CCCC(N)=O [5-n-propyl-octanamide, 5-n-Propyl-octanamide]
% of failures [1, 5]: 0%
% of failures [1, 6]: 50%

CCCC(CCC)CCC(N)=O [4-n-propyl-heptanamide, 4-n-Propyl-heptanamide]
% of failures [1, 7]: 0%

CCCC(CCC)CCC(=O)O [ONa, n = 1]
% of failures [1, 7]: 30%

CCCC(CCC)C(N)=O [di-n-propylacetamide]
increase in survival time ([2]; 50 mg/kg intraperitoneal): 12%
ED50 ([3]; mice, oral route, registered 15 minutes after pentylenetetrazol, read-out: ED50): 46 mg/kg
% of failures ([1]; 15 minutes after administration of 170 mg/kg by oral route): 50%

CCCC(CCC)CC(=O)[O-].[Na+]
ED50 ([3]; po): 95 mg/kg
ED50 ([4]; po): 168 mg/kg
% of failures [1, 5]: 30%
% of failures [1, 8]: 30%

CCCC(CCC)CC(N)=O [3-n-propyl-hexanamide, 3-n-Propyl-hexanamide]
% of failures [1, 5]: 30%
% of failures [1, 8]: 10%

CCCC(CCC)CCCC(=O)O [ONa, n = 2]
ED50 ([4]; male mice, oral, 30 min before β-mercaptopropionic acid 70 mg/kg i.p., registered 15 minutes after, read-out: ED50): 273 mg/kg
% of failures [1, 5]: 20%
% of failures [1, 6]: 100%

CCCC(CCC)C(=O)[O-].[Na+] [sodium di-n-propylacetate]
increase in survival time ([2]; 200 mg/kg intraperitoneal): 32%
ED50 ([4]; po, an other comparative test, read-out: ED50): 175 mg/kg
